Assay results reported in patent US20040072744A1, “Synthetic peptide as treatment for down's syndrome and schizophrenia” (priority 2002, published 2004).
Entries after “also recorded” stand apart in the source; their conditions may differ.

B1: NGF (protein)
chain: EDHPVHNLGEHSVCDSVSAWVTKTTATDIKGNTVTVMENVNLDNKVYKEYFFETKCKNPNPEPSGCRGIDSSHWNSYCTETDTFIKALTMEGNQASWRFIRIDTACVCVITKKTGN

Legend:
Alzheimer's patients = settings: oral administration, human clinical trials; cited from earlier work
NGF = NGF content in organ homogenates of orally treated mice by ELISA using anti-NGF; assay type: in vivo, Balb/c male mice; settings: oral 100 μg/mouse for 7 days
Description: One year old Balb/c male mice (considered to be retired and non-productive) were given Adesh-10 orally for seven consecutive days, and the control set of mice received PBS. Two days after the completion of the treatment, the mice were sacrificed for organs. Organ homogenates were assayed for NGF content by simple enzyme-linked immunosorbent assay (ELISA), using anti-NGF.
Preparation of organ homogenates: Mice were used in compliance with U.S. Public Health Service policy on humane care and use of animals. One-year-old Balb/c male mice were divided into two groups each consisting of five. Mice in group I were given orally 100 μg/mouse in 50 μl volume of Adesh-10, the synthetic analog of NGF for seven consecutive days. The group II mice were given similar volume of PBS. Two days after the completion of the treatment with Adesh-10 or PBS the mice were sacrificed for organs. Organs from five of each group of mice were collected and one type of organ from five were pooled. The pool of the organs was homogenized in PBS by manual homogenizer. The homogenates were centrifuged and the supernatants for each pool organ were separated. Protein concentration for each supernatant was measured on spectrophotometer using a protein kit from Bio-Rad (USA catalogue 500-0006). The protein concentrations of the supernatants were adjusted to 100 μg/ml with PBS, as stocks for further testing.
Enzyme-linked immunosorbent assay (ELISA): ELISA tests were carried out in 96 well microtiter plates. The reagents for ELISA were purchased from Sigma-Aldrich Co. The stocks from mouse organs were diluted with carbonate-bicarbonate buffer of pH 9.4 to 10 μg/ml as coating antigen for ELISA. The wells of the plate were coated with antigen, 100 μl/well. The plate was left at room temperature (RT) overnight, after which it was emptied and washed three times (3×) with PBS. The wells were blocked with 250 μl/well of 3% fish skin gelatin. After 30 min. the plate was emptied and washed 3× with PBS. Anti-NGF made in rabbit was diluted from 1:300 in gelatin. Three wells received 100 μl of each dilution of anti-serum. Two-fold diluted anti-sera were used from 1:300 in triplicate. The antigen controls without antibody were incorporated. The plate was incubated at 37° C. in a humid incubator for 1 hr after which the plate was washed 3× with PBS. The horseradish peroxidase conjugated with rabbit IgG 100 μl/well were reacted, for 30 min. Finally, after washing, the wells of the plate were reacted with O-phenylenediamine-HCl (OPD) for color development. The plate was read after 30 min. and the OD was recorded at […]. The average of triplicate readings was expressed as ELISA titer/100 μl.
One year old Balb/c male mice were used for this research. Ten mice were used consisting of two groups five of each. Mice in group I were given orally 100 μg/mouse in 50 μl volume of Adesh-10, synthetic analog of NGF for seven consecutive days. The group II mice were given similar volume of PBS. Two days after the completion of the treatment the mice were sacrificed for organs. Organ homogenates were assayed for NGF by ELISA.

Down syndrome children = assay: Treatment of Down syndrome children; assay type: in vivo, human; settings: 100 μg/day, orally under the tongue or sub cutaneous injection
Description: In Humans: Several Down syndrome children were treated with Adesh-10. Adesh-10 was administered in the amount of 100 μg/day, either orally under the tongue, or by sub cutaneous injection.

[1] = tested on: influenza virus A/TAI strain; assay: Kinetics of replication of influenza A/TAI virus in MDCK cells in serum free medium with supplement; assay type: cell-based; settings: 1 μg/ml trypsin; for A/TA1 virus titer Day 2: 1 μg/ml NGF or 5 μg/ml Adesh-10, day 2; for A/TA1 virus titer Day 4: 1 μg/ml NGF or 5 μg/ml Adesh-10, day 4; for A/TA1 virus titer Day 6: 1 μg/ml NGF or 5 μg/ml Adesh-10, day 6
PC12 cells = assay: Neurite production on PC12 cells; assay type: cell-based, rat
Description: (§1) Adesh-10 (SEQ. ID. NO.: 2) is considered exemplary of the Adesh family of peptides and has been studied and tested to illustrate the invention. Venom derived NGF produced neurites on PC12 cells at 5 ng/ml while the concentration of Adesh-10 required was 1 μg/ml. NGF is toxic to PC 12 cells at the concentration of 5 μg/ml, while Adesh-10 is not toxic up to 100 μg/ml.

PC 12 cells = assay: Toxicity to PC12 cells; assay type: cell-based, rat
Description: as §1

simian rotavirus (SA11) = assay: Kinetics of replication of SA11 virus in MA104 cells in serum free medium with supplement; assay type: cell-based; settings: 1 μg/ml trypsin; for SA11 virus titer Day 2: 1 μg/ml NGF or 5 μg/ml Adesh-10, day 2; for SA11 virus titer Day 4: 1 μg/ml NGF or 5 μg/ml Adesh-10, day 4; for SA11 virus titer Day 6: 1 μg/ml NGF or 5 μg/ml Adesh-10, day 6; for SA11 virus titer Day 8: 1 μg/ml NGF or 5 μg/ml Adesh-10, day 8

Molecule	A/TA1 virus titer Day 2 [1] [Log TCID5/ml]	A/TA1 virus titer Day 4 [1] [Log TCID5/ml]	A/TA1 virus titer Day 6 [1] [Log TCID5/ml]	concentration toxic to PC 12 cells (PC 12 cells) [µg/mL]	SA11 virus titer Day 2 (simian rotavirus (SA11)) [Log TCID50/ml]	SA11 virus titer Day 4 (simian rotavirus (SA11)) [Log TCID50/ml]	SA11 virus titer Day 6 (simian rotavirus (SA11)) [Log TCID50/ml]	SA11 virus titer Day 8 (simian rotavirus (SA11)) [Log TCID50/ml]	also measured
O=C(CCn1cnc2c(=O)[nH]cnc21)Nc1ccc(C(=O)[O-])cc1.[K+] [AIT-082]									efficacy in Alzheimer's patients versus placebo (Alzheimer's patients): no difference between Alzheimer's patients treated with AIT-082 and placebo
N L G E H P V C D S (NLGEHPVCDS; CORRESPONDS TO POSITIONS 1-10 OF SEQ. ID. NO. 1) [Adesh-10]	4	5.1	6.2	> 100	3	6	6.5	8	NGF concentration in organ, Treated: Bone (NGF; Bone, one year old male mice, organs 2 days after treatment): 900 ELISA titer/100 μl; NGF concentration in organ, Treated: Brain (NGF; Brain, one year old male mice, organs 2 days after treatment): 2400 ELISA titer/100 μl; NGF concentration in organ, Treated: Heart (NGF; Heart, one year old male mice, organs 2 days after treatment): 2400 ELISA titer/100 μl; NGF concentration in organ, Treated: Kidney (NGF; Kidney, one year old male mice, organs 2 days after treatment): 1800 ELISA titer/100 μl; NGF concentration in organ, Treated: Liver (NGF; Liver, one year old male mice, organs 2 days after treatment): 2400 ELISA titer/100 μl; NGF concentration in organ, Treated: Lung (NGF; Lung, one year old male mice, organs 2 days after treatment): 1800 ELISA titer/100 μl; NGF concentration in organ, Treated: Muscle (NGF; Muscle, one year old male mice, organs 2 days after treatment): 2400 ELISA titer/100 μl; NGF concentration in organ, Treated: Pancreas (NGF; Pancreas, one year old male mice, organs 2 days after treatment): 1200 ELISA titer/100 μl; NGF concentration in organ, Treated: Salivary (NGF; Salivary, one year old male mice, organs 2 days after treatment): 1200 ELISA titer/100 μl; NGF concentration in organ, Treated: Skin (NGF; Skin, one year old male mice, organs 2 days after treatment): 1200 ELISA titer/100 μl; NGF concentration in organ, Treated: Spleen (NGF; Spleen, one year old male mice, organs 2 days after treatment): 1200 ELISA titer/100 μl; NGF concentration in organ, Treated: Testis (NGF; Testis, one year old male mice, organs 2 days after treatment): 1800 ELISA titer/100 μl; increase in NGF level versus control (NGF; brain, muscle and testis): twofold increase; clinical effect in Down's syndrome children (Down syndrome children): good results; also recorded: improved physical, vocal, learning and memory abilities; concentration required to produce neurites on PC12 cells (PC12 cells): 1 µg/mL
Trypsin [reference compound]	5.6	6	6.5		6.5	7.2	8	8.5	
B1	5	5.5	6.1	5	4	7	7.5	8.2	concentration producing neurites on PC12 cells (PC12 cells): 5 ng/mL
